Results on three compounds are retold here after patent publication US6699497B1 (Alza Corporation, priority 1998, dated 2004).

Counter-ions that a name gives are not always drawn.

The conditions of data set [1]: mild to moderate hypertensive patients; cited from earlier work.
For data set [2] the following is noted: in vivo; cited from earlier work.
The conditions of data set [3]: oral administration; cited from earlier work.
Data set [4] is described as follows: in vitro transdermal flux of fenoldopam through human epidermis. It is filed as in vitro ADME. The source says:
The resulting mix was then calendered to a 5 mil thickness between 2 release liners. The drug reservoir was then heat laminated to a Medpar® backing on one surface and a 3M acrylate adhesive on the other. Circular systems were cut with a stainless steel punch.
The release liner of the matrix system was then removed and each system had its exposed edges masked. The systems were then mounted on a Teflon® holder of a release rate rod using nylon mesh and nickel wire. A known volume of receptor solution (30 ml 0.01 M phosphate buffer solution at pH 2.5) was then placed in a test tube and equilibrated at 35° C. The test tube was placed in a water bath and maintained at 35° C. The Teflon rod with attached system was then reciprocated within the test tube by attaching the rod to a motor which caused constant vertical mixing.
At given time intervals, the entire receptor solution was removed from the test tubes and replaced with an equal volume of fresh receptor solutions previously equilibrated at 35° C. […] From the drug concentration and the volume of the receptor solutions, the area of the system and the time interval, the release rate of the drug from the system was calculated as follows: (drug concentration X volume of receptor)/(area x time) =release rate (μg/cm^2·hr).
Transdermal systems set forth in Table 1 were prepared according to Example 1 and used to measure permeation through human cadaver skin. […] The edges of epidermis were then folded around the system so that none of the system edge was exposed to the receptor solution. […] The receptor compartment was filled with a known volume of 0.01 M KH2PO4/K2HPO4 which was adjusted to pH 2.5 with 10% H3PO4 buffer solution previously equilibrated at 35° C.
Transdermal systems set forth in Table 2 were prepared according to the procedure set forth in Example 1 and used to measure permeation through human cadaver skin. […] The edges of epidermis were then folded around the system so that none of the system edge was exposed to the receptor solution. […] The receptor compartment was filled with a known volume of 0.01 M KH2PO4/K2HPO4 which was adjusted to pH 2.5 with 10% H3PO4 buffer solution previously equilibrated at 35° C.

In the case of `Oc1ccc(C2CNCCc3c2cc(O)c(O)c3Cl)cc1` (stereo not shown) [fenoldopam, 6-Chloro-2,3,4,5-tetrahydro-1-(4-hydroxyphenol)-1H-3-benzapine-7,8 diol], the elimination half-life result in data set [1] is reported as “about 5 minutes”. Further, the “effect on systolic and diastolic blood pressure” value in data set [2] was “dose-dependent reduction in systolic and diastolic blood pressure”. Besides, the clinical benefit result in data set [3] is listed as “does not provide any clinical benefit”.
On to `Oc1ccc(C2CNCCc3c2cc(O)c(O)c3Cl)cc1` (stereo not shown) [fenoldopam mesylate], for which the “lag period on transdermal administration” value in data set [4] is listed as “did not exhibit the long lag period”. Moreover, in data set [4] (myristyl sarcosine as permeation enhancer), the “transdermal flux compared to formulations of the base” value was “higher transdermal fluxes”.
Turning to `Oc1ccc(C2CNCCc3c2cc(O)c(O)c3Cl)cc1` (stereo not shown) [fenoldopam base], the “lag period on transdermal administration” value in data set [4] is on record as “long lag period”. Further, the “permeability through the skin, formulations of base compared to formulations of salts” value in data set [4] (in general, compared to salts such as fenoldopam mesylate) is “more permeable through the skin”.
